Source: patent publication US12090164B2, “Genotype-agnostic rescue of cystic fibrosis with small molecule bicarbonate channels” (The Board of Trustees of the University of Illinois, priority 2017, dated 2024)
Entries after “also recorded” stand apart in the source; their conditions may differ.

Key:
Type in all cases: cell-based, human
[1] = system: CuFi-1 (ΔF508/ΔF508) epithelia; assay: Basolateral to apical H14CO3- transport; conditions: AmB 2 μM basolateral
[2] = system: ASL of primary CF epithelia; Staphylococcus aureus killed; assay: ASL antibacterial activity (S. aureus-coated gold grids); conditions: 2 μM, 48 h
Description: Staphylococcus aureus-coated gold grids were used to measure antibacterial activity of airway epithelial cultures (3, 4). Small diameter primary cultured epithelia were used for this experiment (0.33 cm^2). Bacteria-coated gold TEM grids were placed onto the apical surface of airway epithelia for 1 min after 48 hours of perfluorocarbon (FC-72, Sigma), 2 μM AmB, or 2 μM C35deOAmB treatment. As controls, bacteria-coated grids were also placed in saline or AmB in FC-72 laid over saline to simulate the administration method for 1 minute. After removal, bacteria on the grids were assessed for viability using Live/Dead BacLight Bacterial Viability assay (Invitrogen). Viability was determined in 4-6 fields to determine the percentages of dead bacteria.

[3] = system: primary cultured airway epithelia derived from humans with CF; assay: ASL pH in primary cultured airway epithelia from CF donors
Description: (§1) Airway epithelial cells were obtained from human trachea and bronchi of CF and non-CF specimens obtained from the Iowa Donor Network, either as post-mortem specimens or from tissue deemed not fit for transplant. Studies were approved by the University of Iowa Institutional Review Board. After pronase enzymatic digestion, cells were seeded onto collagen-coated semi-permeable membranes (0.33-1.12 cm^2, Corning 3470 polyester, 3460 polyester, 3413 polycarbonate) and grown at an air-liquid interface (52). Airway epithelial cell cultures were analyzed after they had differentiated and at least 14 days post-seeding.
(§2) Small diameter NuLi, CuFi, and primary cultured epithelia were used for this experiment (0.33 cm^2). The ratiometric pH indicator SNARF-conjugated dextran (Molecular Probes) was used to measure ASL pH. SNARF powder was suspended via sonication in perfluorocarbon (FC-72, Sigma) and distributed onto the apical surface. ASL pH was measured 2 hr later (3, 4, 25). SNARF was excited at 488 nm and emission was recorded at 580 nm and 640 nm using a Zeiss LSM 800 microscope at 40× water immersion for cell line cultures and a Zeiss LSM 510 microscope for primary cultures. To generate a standard curve for pH determination, SNARF was dissolved in colorless pH standards and fluorescence ratios were converted to pH.
Agents tested in this assay were first lyophilized into powder and then suspended in the appropriate volume of perfluorocarbon (FC-72, Sigma) and sonicated for 1 minute to suspend. AmBisome should not be sonicated; instead, the fine powder was suspended by vortexing.
In all experiments, ASL pH of compound-treated epithelia was measured compared the results to vehicle-treated epithelia.
For apical AmB administration, cultured airway epithelia were incubated for 30 min-48 hrs at 37° C. before measurement of ASL pH. For AmB-cholesterol complex and C35deOAmB administration, cultured airway epithelia were incubated for 48 hrs at 37° C. before measurement of ASL pH. To test the effect of […] ATPase inhibition, AmB was administered 47 hours prior to 10 mM ouabain addition, and cultured airway epithelia were incubated for an additional 1 hr at 37° C. before measurement of ASL pH. For 10 μM ivacaftor/10 μM forskolin administration, cultured airway epithelia were incubated for 2 hrs at 37° C. before measurement of ASL pH (25). For basolateral AmB administration, a 2 mM stock of AmB in DMSO was diluted 1000-fold to a final concentration of 2 μM in USG media. The basolateral media of cultured airway epithelia was replaced with the AmB-containing USG media and incubated for 48 hrs at 37° C. before measurement of ASL pH.

[4] = system: non-CF primary cultured epithelia; assay: ASL pH in non-CF primary cultured epithelia; conditions: AmB 2 μM, 48 h
Description: as §1
as §2, with “pH. […]” for “pH. SNARF powder was suspended via sonication in perfluorocarbon (FC-72, Sigma) and distributed onto the apical surface.”, “pH. […]” for “pH.”
In all experiments, ASL pH of compound-treated epithelia was measured compared the results to vehicle-treated epithelia. […]

C[C@@H]1[C@H](O)[C@@H](C)/C=C/C=C/C=C/C=C/C=C/C=C/C=C/[C@H](O[C@@H]2O[C@H](C)[C@@H](O)[C@H](N)[C@@H]2O)C[C@@H]2O[C@](O)(C[C@@H](O)C[C@@H](O)[C@H](O)CC[C@@H](O)C[C@@H](O)CC(=O)O[C@H]1C)C[C@H](O)[C@H]2C(=O)O [AmB, amphotericin B]
basolateral to apical H^14CO3^− transport, basolateral addition of AmB [1]: did not; also recorded: caused no increase ASL ^14C bicarbonate; also recorded: did not raise ASL pH or increase H^14CO3^− secretion
ASL antibacterial activity (% of S. aureus killed after exposure to ASL) [2]: increased antibacterial activity for a diverse range of patient genotypes; also recorded: nearly doubled ASL bacterial killing; also recorded: restores ASL pH and antibacterial activity
ASL pH, apical addition ([3]; 9 donors, 2 μM, 48 h): caused an increase in ASL pH across a wide range of different genotypes; also recorded: increased ASL pH; also recorded: restores ASL pH
ASL pH, basolateral addition of AmB ([3]; AmB 2 μM basolateral, 48 h): did not increase ASL pH
average increase in ASL pH ([3]; apical AmB 2 μM): 0.2 pH units
time for which the increase in ASL pH is sustained ([3]; apical AmB 2 μM): at least 48 hours
ASL pH of non-CF primary epithelia [4]: had no effect on the pH of non-CF primary cultured epithelia
